Like-named read-outs stand apart in the source and are kept apart here. Marks after values point to notes of the source that are not given here.
Experiments:
[1] = tested on: Candida albicans ATCC 10231; experiment: MIC/MFC, microdilution method (modified CLSI M27); type: cell-based; conditions: 28 °C; for MIC / MFC: Candida albicans, ATCC10231, 24 h; for MIC: C. albicans ATCC 10231, 90% growth inhibition, read-out: Minimum inhibitory concentration (MIC); for MIC / Minimum inhibitory concentration (MIC): YPG; for MFC: C. albicans ATCC 10231, no growth on solid YPG, read-out: Minimum fungicidal concentration (MFC*); for Minimum inhibitory concentration (MIC) / Minimum fungicidal concentration (MFC*): C. albicans ATCC 10231, 24 h; for Minimum inhibitory concentration (MIC): 90% growth inhibition; for Minimum fungicidal concentration (MFC*): no growth on solid YPG
Experimental: (§1) Minimum inhibitory concentration (MIC) and minimum fungicidal concentration (MFC) values were determined based on the modified CLSI M27 protocol. The study was performed using the microdilution method on sterile 96-well titration plates. The S. cerevisiae Σ1278b ATCC 42800, S. cerevisiae BY4741 ATCC 201388, C. albicans ATCC 10231, C. albicans 595/20 and R. mucilaginosa ATCC 4056 were incubated for 18 h at 28 °C (without shaking), then centrifuged (1000 rcf, 5 min), and the obtained pellet was suspended in fresh YPG medium and optical density (OD) = 0.25–0.3 was determined at a wavelength (λ) of 590 nm. Next, 10 μl of selected compounds at appropriate final concentrations (5–1280 μM) were spotted into the wells of the titration plate. Then, 80 μl of YPG medium and 10 μl of culture with a fixed OD were added. All tests were performed in triplicate. The plate was incubated at 28 °C for 24 h. The YPG medium was a negative control, while the prepared culture not treated with compounds was a positive control. […] The minimum inhibitory concentration was determined at 90% growth inhibition.
(§2) In order to determine the MFC of selected gemini surfactants, 10 μl of culture was transferred to solid YPG medium from the wells of the titration plate in which MIC was observed and from wells with the compound with higher concentrations. The spotted suspensions were incubated at 28 °C for 24 h. After incubation, inhibition of the growth of microorganisms was observed.

[2] = tested on: Rhodotorula mucilaginosa ATCC 4056; experiment: MIC/MFC, microdilution method (modified CLSI M27); type: cell-based; conditions: 28 °C; for Minimum inhibitory concentration (MIC) / MIC: YPG; for MFC: read-out: Minimum fungicidal concentration (MFC*); for MIC: read-out: Minimum inhibitory concentration (MIC)
Experimental: as §1, §2

[3] = tested on: Saccharomyces cerevisiae Σ1278b ATCC 42800; experiment: MIC/MFC, microdilution method (modified CLSI M27); type: cell-based; conditions: S. cerevisiae Σ1278b, 28 °C; for MIC / Minimum inhibitory concentration (MIC): 90% growth inhibition, YPG; for MIC: read-out: Minimum inhibitory concentration (MIC); for MFC / Minimum fungicidal concentration (MFC*): no growth on solid YPG; for MFC: read-out: Minimum fungicidal concentration (MFC*)
Experimental: as §1, §2

[4] = Krafft point (TK) determination; type: physicochemical
Experimental: Elemental analysis was conducted utilizing Vario EL cube (Elementar, Germany) calibrated on acetanilide. Mass spectra were gain by electrospray ionization mass spectroscopy (ESI–MS) (micrOTOF-Q instrument; Bruker Daltonics, Germany). The ESI–MS aparatus was operated in the positive ion mode (calibrated with the Tunemix™ mixture; Bruker Daltonics; Germany), followed by spectra analysis by the DataAnalysis 3.4 software (Bruker Daltonics, Germany)—resolution of at least 5 ppm. Proton NMR and ^13C NMR measurements were performed on a Bruker AMX-500 spectrometer, utilizing CDCl3 or DMSO-d6 as a solvent. Proton and ^13C chemical shifts (given in ppm) were calibrated to TMS (δ = 0 ppm) as an internal reference. Krafft points were measured according to procedures described in our previous studies Lamch et al.,[82]. Values of CMC for all surfactants were measured utilizing the conductometric method for the compounds’ solutions in milliQ water in the same manner as described in Kula et al.. For all spectra: ^1H NMR, ^13C NMR and ESI–MS as well as appropriate comments see Electronic Supplementary Material.

[5] = tested on: Salmonella Typhimurium TA100; conditions: for Number of colonies: ± SD
Experimental: (§3) The mutagenic potential of the tested gemini QAS was determined using the Ames test[83] using Salmonella Typhimurium TA98 and Salmonella Typhimurium TA100 with defects in histidine biosynthesis. The culture of S. Typhimurium TA98 and S. Typhimurium TA100 was incubated with shaking at 37 °C for 18 h, centrifuged (3000 rpm, 5 min) and OD = 1.5 was determined, at a wavelength of λ = 590 nm. The agar was dissolved and cooled to 42 °C. […] The media were incubated for 48 h at 37 °C. The positive control for the S. Typhimurium TA98 strain was acriflavin (100 μg/ml), and for the S. Typhimurium TA100 strain, sodium azide (15 μg/ml). The negative control was the culture without tested compound and with NaCl (0,9%). After incubation, the colonies were counted and the mutagenicity index (MR) was determined—the ratio of the number of revertants resulting from the mutagenic effect of the tested compound to the number of spontaneous revertants. Experiment was performed in three repetitions.

[6] = tested on: Salmonella Typhimurium TA98; experiment: Mutagenicity, Ames test; conditions: for Number of colonies: ± SD
Experimental: as §3

[7] = R. mucilaginosa ATCC 4056, 90% growth inhibition, 24 h
[8] = Rhodotorula mucilaginosa, ATCC4056, 24 h, R. mucilaginosa ATCC 4056, no growth on solid YPG
[9] = Saccharomyces cerevisiae, ATCC42800, 24 h
[10] = R. mucilaginosa ATCC 4056, no growth on solid YPG, 24 h

Row | SMILES | MIC [1] [µM] | MFC [1] [µM] | Minimum inhibitory concentration (MIC) [2, 7] | MFC [2, 8] [µM] | MIC [3, 9] [µM] | MFC [3, 9] [µM] | TK (Krafft point) [4] | Number of colonies ([5]; TA100, ¼ MIC) | Mutagenicity ratio (MR) ([5]; TA100, ½ MIC) | Mutagenicity ratio (MR) ([6]; TA98, ¼ MIC) | Number of colonies ([6]; TA98, ¼ MIC) | Mutagenicity ratio (MR) ([6]; TA98, ½ MIC) | Number of colonies ([6]; TA98, ½ MIC) | MIC [2, 7] [µM] | Minimum fungicidal concentration (MFC*) [2, 10] | MIC ([3]; 24 h) [µM] | Mutagenicity ratio (MR) ([5]; TA100, ¼ MIC) | Number of colonies ([5]; TA100, ½ MIC) | Minimum inhibitory concentration (MIC) [1] | Minimum fungicidal concentration (MFC*) [1] | other results
1 | CCCCCCCCCCCCCCCC(=O)N(CCCN(CCC[N+](C)(C)C)C(=O)CCCCCCCCCCCCCCC)CCC[N+](C)(C)C [2xC16BrG3] | > 1280 | > 1280 | > 640 640* µM | 640 | > 1280 | > 1280 | ~ 5 °C | 380.0 ± 1.37 | 1.50 | 1.51 | 34.3 ± 5.69 | 1.85 | 42.0 ± 5.57 | – | – | – | – | – | – | – | –
2 | CCCCCCCCCCCC(=O)N(CCCN(CCC[N+](C)(C)C)C(=O)CCCCCCCCCCC)CCC[N+](C)(C)C [2xC12BrG3] | 640 | 640 | 10 10* µM | – | – | – | < 0 °C | 265.0 ± 7.07 | 1.23 | 0.82 | 18.7 ± 2.31 | 7.67 | 174.5 ± 9.19 | 10 | 10 10* µM | 240 | 0.95 | 308.3 ± 6.87 | – | – | MFC ([3]; 24 h): 320 µM
3 | CCCCCCCCCCCCCC(=O)N(CCCN(CCC[N+](C)(C)C)C(=O)CCCCCCCCCCCCC)CCC[N+](C)(C)C [2xC14BrG3] | 640 | 1280 | – | 320 | 360 | 640 | < 0 °C | 199.0 ± 1.41 | 0.98 | 1.08 | 29.7 ± 2.08 | 1.75 | 48.0 ± 2.83 | – | – | – | 0.99 | 197.0 ± 0.71 | – | – | MIC ([2]; Rhodotorula mucilaginosa, ATCC4056, 24 h, R. mucilaginosa ATCC 4056, 90% growth inhibition): 80 µM
4 | CCCCCCCCCCCCCCCC(=O)N(CCCN(CCC[N+](C)(C)C)C(=O)CCCCCCCCCCCCCCC)CCC[N+](C)(C)C [2xC16LaG3] | – | – | – | – | – | – | < 0 °C | 197.7 ± 1.53 | 1.06 | 1.12 | 30.7 ± 1.15 | 1.35 | 37.0 ± 3.46 | 80 | – | – | 0.99 | 213.0 ± 4.24 | > 1280 > 1280* µM | > 1280 > 1280* µM | MFC [2, 10]: 640 µM; Minimum inhibitory concentration (MIC) ([3]; 24 h): > 1280 > 1280* µM; Minimum fungicidal concentration (MFC*) ([3]; 24 h): > 1280 > 1280* µM
5 | CCCCCCCCCCCCCCCC(=O)N(CCCN(CCC[N+](C)(C)C)C(=O)CCCCCCCCCCCCCCC)CCC[N+](C)(C)C [2xC16MeCO3G3, dimethyl{{3-[N-(3-{N-[3-(dimethylammonium)propyl]hexadecylamido}propyl}hexadecylamido}propyl}}ammonium dimethylcarbonate] | – | – | 640 640* µM | – | – | – | ~ 5 °C | 398.0 ± 2.83 | 1.76 | 1.55 | 35.3 ± 5.03 | 1.85 | 42.0 ± 2.16 | – | 640 640* µM | – | 1.43 | 490.5 ± 3.54 | > 1280 > 1280* µM | > 1280 > 1280* µM | Minimum inhibitory concentration (MIC) ([3]; 24 h): > 1280 > 1280* µM; Minimum fungicidal concentration (MFC*) ([3]; 24 h): > 1280 > 1280* µM
6 | CCCCCCCCCCCC(=O)N(CCCN(CCC[N+](C)(C)C)C(=O)CCCCCCCCCCC)CCC[N+](C)(C)C [2xC12MeCO3G3, dimethyl{{3-[N-(3-{N-[3-(dimethylammonium)propyl]dodecylamido}propyl}dodecylamido}propyl}}ammonium dimethylcarbonate] | – | – | 320 320* µM | – | – | – | < 0 °C | 243.0 ± 8.49 | 1.57 | 1.57 | 35.8 ± 2.63 | 2.59 | 59.0 ± 2.65 | – | 320 320* µM | 640 | 0.87 | 438.0 ± 2.83 | > 1280 > 1280* µM | > 1280 > 1280* µM | MFC ([3]; 24 h): > 1280 µM

From paper PMC11187217, “Anti-adhesive, anti-biofilm and fungicidal action of newly synthesized gemini quaternary ammonium salts” (Scientific Reports, 2024)
